Results taken from ChEMBL document CHEMBL1201862, “PubChem BioAssay data set” (2004).
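The compound was tested at five concentrations on cells cultured in 96-well plates, with a 48-hour exposure period. GI50 is the concentration that inhibits growth by half.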 Calls of active or inactive are those of the source. No stated cut-off is given here; in the data, active = GI50 up to about 1.1 µM and inactive = higher.

Experiments:
Assay in all cases: inhibition of tumour cell growth, NCI panel, 48 h
[1] = system: 786-0
[2] = system: A549
[3] = system: HCC 2998
[4] = system: HL-60
[5] = system: LOX IMVI
[6] = system: M19-MEL
[7] = system: Malme-3M
[8] = system: NCI-H226
[9] = system: NCI-H23
[10] = system: OVCAR-3
[11] = system: SF-539
[12] = system: SK-MEL-2
[13] = system: SK-MEL-5
[14] = system: SR
[15] = system: UACC-257
[16] = system: BT-549
[17] = system: Hs-578T
[18] = system: MDA-MB-231
[19] = system: MDA-MB-435
[20] = system: T47D

With `O=[N+]([O-])c1ccc(-c2ccc(/C=N/n3c(S)nnc3-c3ccc(Cl)cc3)o2)cc1` the GI50 [1] was 19.2 µM (inactive), the GI50 [2] was 28 µM (inactive) and the GI50 [3] was > 72.4 µM (inactive). For the same molecule, the GI50 [4] was 51.2 µM (inactive), the GI50 [5] was 47.5 µM (inactive) and the GI50 [6] was 21.1 µM (inactive). The GI50 [7] was 17.4 µM (inactive), the GI50 [8] was > 38.6 µM (inactive) and the GI50 [9] was 27.2 µM (inactive). The GI50 [10] was 27.9 µM (inactive), the GI50 [11] was > 40.2 µM (inactive) and the GI50 [12] was 34.2 µM (inactive). The GI50 [13] was 20.5 µM (inactive), the GI50 [14] was 22.3 µM (inactive) and the GI50 [15] was > 57.5 µM (inactive).

`CN(C)CCCN1N=Nc2cccc3cccc1c23` was tested, and the GI50 [1] was 17.9 µM (inactive), the GI50 [2] was > 100 µM (inactive) and the GI50 [3] was > 59 µM (inactive). For the same molecule, the GI50 [4] was 30.3 µM (inactive), the GI50 [5] was 41.9 µM (inactive) and the GI50 [6] was > 51.4 µM (inactive). The GI50 [7] was > 100 µM (inactive), the GI50 [8] was > 100 µM (inactive) and the GI50 [9] was > 100 µM (inactive). For the same molecule, the GI50 [10] was > 100 µM (inactive), the GI50 [11] was > 60.7 µM (inactive) and the GI50 [12] was > 100 µM (inactive). For the same molecule, the GI50 [13] was > 84.9 µM (inactive), the GI50 [14] was 26.5 µM (inactive) and the GI50 [15] was > 91.8 µM (inactive).

`CCC(/C=C/C1OC(=O)C=CC1C)=C\C(C)C/C=C/C(C)=C/C(C)C(=O)C(C)C(O)C(C)C/C(C)=C/C(=O)O` (stereo not drawn) was tested, and the GI50 [1] was < 1e-06 µM (active), the GI50 [2] was 0.946 µM (active) and the GI50 [16] was 2.22e-06 µM (active). The GI50 [3] was 6.76e-06 µM (active), the GI50 [4] was 0.855 µM (active) and the GI50 [17] was 0.0144 nM (active). For the same molecule, the GI50 [5] was < 1e-06 µM (active), the GI50 [6] was 1.16 µM (inactive) and the GI50 [18] was 3.4e-06 µM (active). For the same molecule, the GI50 [19] was 2.33 pM (active), the GI50 [7] was 1.44 µM (inactive) and the GI50 [8] was 1.67 µM (inactive). The GI50 [9] was 1.04 µM (active), the GI50 [10] was 0.649 µM (active) and the GI50 [11] was 1.04 µM (active). The GI50 [12] was 4.31 µM (inactive), the GI50 [13] was 4.88e-05 µM (active) and the GI50 [14] was < 1e-06 µM (active). For the same molecule, the GI50 [15] was 1.62 µM (inactive).

For `Nc1ncnc2c1ncn2CCCC(c1ccccc1)P(=O)(O)O` (stereo not drawn), the GI50 [1] was > 100 µM (inactive), the GI50 [2] was > 100 µM (inactive) and the GI50 [3] was > 100 µM (inactive). The GI50 [4] was > 100 µM (inactive), the GI50 [5] was > 100 µM (inactive) and the GI50 [6] was > 100 µM (inactive). The GI50 [7] was > 100 µM (inactive), the GI50 [8] was > 100 µM (inactive) and the GI50 [9] was > 100 µM (inactive). For the same molecule, the GI50 [10] was > 100 µM (inactive), the GI50 [11] was > 100 µM (inactive) and the GI50 [12] was > 100 µM (inactive). For the same molecule, the GI50 [13] was > 100 µM (inactive), the GI50 [14] was > 100 µM (inactive) and the GI50 [15] was > 100 µM (inactive).

With `CC(=O)OCC1OC(OC2CC3C(C)(C)C(OC(C)=O)CC[C@]3(C)C3CCC45CC4(CC[C@H]5C(C)CC(O)C4OC4(C)C)[C@]23C)C(O)C(O)C1O` (stereo partly drawn) the GI50 [1] was 2.7 µM (inactive), the GI50 [2] was 2.09 µM (inactive) and the GI50 [3] was 1.37 µM (inactive). The GI50 [4] was 1.18 µM (inactive), the GI50 [5] was 1.63 µM (inactive) and the GI50 [6] was 1.93 µM (inactive). The GI50 [7] was 7.98 µM (inactive), the GI50 [8] was 5.06 µM (inactive) and the GI50 [9] was 2.86 µM (inactive). The GI50 [10] was 2.58 µM (inactive), the GI50 [11] was 3.89 µM (inactive) and the GI50 [12] was 1.84 µM (inactive). The GI50 [13] was 2.69 µM (inactive), the GI50 [14] was 2.65 µM (inactive) and the GI50 [15] was 1.98 µM (inactive).

`COc1ccc2c(=O)c(-c3cc(OC)c(OC)cc3OC)coc2c1` was tested, and the GI50 [1] was 4.11 µM (inactive), the GI50 [2] was 5.41 µM (inactive) and the GI50 [16] was > 100 µM (inactive). For the same molecule, the GI50 [3] was 2.94 µM (inactive), the GI50 [4] was 0.735 µM (active) and the GI50 [17] was 1980 nM (inactive). For the same molecule, the GI50 [5] was 5.51 µM (inactive), the GI50 [6] was 4.15 µM (inactive) and the GI50 [18] was > 100 µM (inactive). The GI50 [7] was 4.54 µM (inactive), the GI50 [8] was > 43.2 µM (inactive) and the GI50 [9] was 8.67 µM (inactive). For the same molecule, the GI50 [10] was 1.84 µM (inactive), the GI50 [11] was 3.3 µM (inactive) and the GI50 [12] was 2.27 µM (inactive). The GI50 [13] was 1.55 µM (inactive), the GI50 [14] was 1.27 µM (inactive) and the GI50 [20] was 6.7 µM (inactive). The GI50 [15] was 11.3 µM (inactive).
